The text below walks through data of patent US20040253597A1, “Novel protein and dna thereof” (priority 2001, published 2004).

The structures appear in SMILES notation.

The target in the assay is T1, human TCH169 (Homo sapiens, UniProt Q86YT5).
T1 construct: expressed in transfected cells
In words: [1,5-^14C] citric acid uptake in the human TCH169 gene expression cell line. The class given is cell-based. As to conditions: human TCH169 expressing CHO cells clone No. 2-11; NaCl buffer (140 mM NaCl) vs NMDG buffer and Mock cells; 37° C., 15 minutes, 30 minutes and an hour. Here is the method:
Using human TCH169 gene expression cell line clone No. 2-11 acquired in EXAMPLE 7, the uptake of [1,5-^14C] citric acid was assayed. Human TCH169 gene expression cell line clone No. 2-11 was seeded on a 96 well plate in 4×10^4 cells per well, followed by incubation at 37° C. for 24 hours. After the medium was removed, the cells were washed 3 times with 150 μL NMDG buffer (140 mM N-methyl-D(−)-glucamine, 25 mM Hepes/Tris, 5.4 mM KCl, 1.8 mM CaCl2, 0.8 mM MgSO4, 5 mM glucose, pH 7.4-7.6), and 150 μL NMDG buffer was supplemented thereto followed by incubation at 37° C. for an hour. After the buffer was replaced with 90 μL NaCl buffer (140 mM NaCl, 25 mM Hepes/Tris, 5.4 mM KCl, 1.8 mM CaCl2, 0.8 mM MgSO4, 5 mM glucose, pH 7.4-7.6) or 90 μL NMDG buffer, 10 μL of 223 μM [1,5-^14C] citric acid (manufactured by Amersham-Pharmacia-Biotech) was added and incubation was performed at 37° C. for 15 minutes, 30 minutes and an hour followed by washing 3 times with 200 μL PBS (manufactured by Takara Shuzo Co., Ltd.). After 100 μL of Opitiphase ‘SuperMix’ (manufactured by Perkin-Elmer-Life Science) was added to the system and the mixture was stirred, the amount of [1,5-^14C] citric acid taken up into the cells was measured in terms of the radioactivity. […] CHO dhfr^− cells transfected with vector pcDNA3.1(+) (Mock) was also treated in a similar manner to measure the radioactivity as well.

T1 sequence (Q86YT5 whole entry): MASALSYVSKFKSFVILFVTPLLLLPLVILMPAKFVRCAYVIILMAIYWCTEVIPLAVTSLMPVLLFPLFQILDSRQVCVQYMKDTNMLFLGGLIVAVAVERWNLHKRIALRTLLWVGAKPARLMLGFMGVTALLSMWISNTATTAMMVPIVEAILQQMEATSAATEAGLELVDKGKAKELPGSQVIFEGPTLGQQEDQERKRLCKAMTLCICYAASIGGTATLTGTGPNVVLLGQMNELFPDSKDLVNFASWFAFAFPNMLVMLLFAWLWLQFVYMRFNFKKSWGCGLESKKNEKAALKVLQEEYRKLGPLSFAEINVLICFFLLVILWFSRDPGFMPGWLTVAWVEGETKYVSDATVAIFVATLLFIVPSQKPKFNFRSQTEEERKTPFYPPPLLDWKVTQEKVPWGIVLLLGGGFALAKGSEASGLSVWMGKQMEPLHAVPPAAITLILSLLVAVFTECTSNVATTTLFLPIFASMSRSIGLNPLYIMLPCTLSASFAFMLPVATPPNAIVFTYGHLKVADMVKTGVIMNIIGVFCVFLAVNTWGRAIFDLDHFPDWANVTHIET

As for `O=C(O)C(O)(C[14C](=O)O)C[14C](=O)O` [[1,5-^14C] citric acid], the “uptake of [1,5-^14C] citric acid into the cells (radioactivity)” value was “taken up into the human TCH169 expression CHO cells”.
